Measured values from US20220133618A1, “Low Surfactant Personal Care Compositions” (The Procter & Gamble Company, priority 2020, published 2022).

Assays:
[1] = system: keratinocytes on de-epidermized dermis (DED); test: TEWL (transepidermal water loss) on organotypic epidermis cultures; assay type: cell-based, human; settings: topical treatment 20 minutes, washed, reading after 24 hours; higher value = worse
Text: TEWL (transepidermal water loss) is a common clinical measure used to compare the mildness of surfactant-based formulations for skin (Rogiers 2001; Berardesca and Maibach 1990; Brink et al. 2019; O'Connor, Ogle, and Odio 2016; Thune et al. 1988). TEWL is considered to provide a relative understanding of individual skin barrier quality in relation to onset of disease, environmental impacts and exposure to topical formulations, such as consumer products (Alexander et al. 2018). […]
De-epithelialized dermis (DED) was prepared by removing fat from the skin sample with a scalpel, cutting the skin into squares measuring 1.25 cm^2, and placing the samples in 1M NaCl plus 10× penicillin/streptomycin. […] The following day, the epidermis was carefully peeled off with forceps and dermal tissue was stored in phosphate-buffered saline (PBS) plus 2× penicillin/streptomycin at 4° C. until ready for use. […]
At day 7 at the air-liquid interface, the cultures were treated topically with full or diluted formulas by cotton swab or by pipetting 6-50 ul, depending on product viscosity. […] Once equilibrated the cultures were placed on the lid of a sterile 150 mm petri dish and TEWL readings were taken using a Delfin Vapometer containing a silicone O-ring adaptor provided by the manufacturer. […]

[2] = Syringe filter polymer cleaning procedure (syringe method); settings: Table 4; controls; Decyl Glucoside 2% starting active before dilution
Method: Procedure for Syringe Filter Polymer Cleaning
1) materials used in syringe cleaning procedure: • A. 0.15% Oil Red 0 dyed >95% pure Glyceryl Trioleate oil (See below—Procedure for preparing 0.15% Oil Red 0 dyed Triolein oil (Glyceryl trioleate)) • B. Syringe Filters: 30 mm, 5 um Nylon syringe filters; (Thermo Fischer Scientific Co, Waltham, Mass.: Part #F2500-50) • C. 24 ml Norm-ject luer (slip tip) syringes Ref #4200-00V0 (These are silicone free syringes) • D. Isopropanol (IPA) • E. Polymer Solutions/mixtures—diluted with distilled water to the desired percentage (typically 0.5% for a polymer only solution and 10% for a full formulation unless otherwise noted in the examples). • F. Plastic drain tubing having a diameter to fit over the slip tip of the syringe filter tightly
Syringe Pump Settings • Syringe Diameter: 20 mm (Note: The volume of liquid dispensed by the syringe is based on the diameter of the syringe and diameter setting must be changed if using different sizes of syringes). • Dispensing Volume set point: 5 mls • Cleaning Dispensing Rate: 5 mls/min • IPA Extraction Rate: 2.5 ml/min
• 1. Coat the slip tip side of the syringe filter (see FIG. 5) using a micro pipettor with 48-50 mg of Oil 0 Red dyed Triolein oil by setting the micro-pipettor to a volume of ˜58 ul to compensate for the lower density of the dyed oil. • 2. Slowly fill the pipette tip with oil. […]

SMILES | TEWL Mean [1] | % Sebum Removed with Syringe Method [2] [%]
CCCCCCCCCCCCOS(=O)(=O)[O-].[Na+] [SLS (10%)] | 26.03 | –
CCCCCCCCCCO[C@@H]1O[C@H](CO)[C@@H](O)[C@H](O)[C@H]1O [Sample C3, Decyl Glucoside] | – | 51
